# Assay results published in patent publication EP4803511A1, “SMALL MOLECULE COMPOUND HAVING SULFONIC ACID OR SULFINIC ACID LACTONE STRUCTURE, COMPOSITION AND USE THEREOF” (Hangzhou Phecdamed Co., Ltd., priority 2023, dated 2025).
# Tests used:
# EP2 = EP2 gene expression in HaCaT after UVB radiation (q-PCR); assay type: cell-based, human; details: UVB 80 mJ/cm^2, 24 hrs, dose-dependent
# From the text: In the following Test Examples 6-1 and 6-2, using immortalized keratinocytes (HaCaT) and UVB to establish a model, after the compound to be test was applied to HaCaT, the expression levels of TNF-α, IL-8, IL-1β and EP2 were detected; using immortalized keratinocytes (HaCaT) and capsaicin to establish a model, after the compound to be test was applied to HaCaT, the expression level of TRPV1 was detected, so as to evaluate the soothing effect of the test substance from multiple dimensions.
# • 1) Cell inoculation: HaCaT cells were inoculated into a 6-well plate at 6×10^5/well, cultured in an incubator (37°C, 5% CO2) for 12 hrs, and a normal control group (0 mJ/cm^2 + vehicle control), a model control group (80 mJ/cm^2 + vehicle control), a low concentration group (80 mJ/cm^2 + low concentration compound), a medium concentration group (80 mJ/cm^2 + medium concentration compound), and a high concentration group (80 mJ/cm^2 + high concentration compounds) were respectively provided. • 2) UVB modeling: The HaCaT cells were washed 3 times with D'Hanks before UVB radiation, 1 mL of D'Hanks was added into the wells, to make the cells to be immersed, and the control group was coated with tinfoil and placed in the dark. […]
# LAMA5 = assay: LN-5 gene expression in HaCaT human immortalized keratinocytes; assay type: cell-based; details: 24 hrs, dose-dependent
# From the text: Skin fragility is partly attributed to changes in hemidesmosomes and the expression downregulation of various collagen proteins (Collagen I, III, IV, VII) or laminins (such as LN-5) at the dermal-epidermal junction. LN-5 has been proven to be a component of anchoring fibers in the basement membrane of the skin, cornea, conjunctiva, and other tissues. LN-5 participates in cell-cell interactions through the mediation of integrins and proteoglycans, thereby playing a crucial role in cell adhesion, growth, migration, and differentiation. The appearance of wrinkles is closely related to the normal synthesis and expression of collagen and laminins. Therefore, the increase of the above collagen content and LN-5 can achieve a certain role in resisting wrinkles, and plays an important role in the aging process of the skin. Therefore, the anti-wrinkle effect of the compound to be tested was evaluated by detecting the level of Collage I protein of […] by ELISA, and detecting the transcription levels of epidermal cells (keratinocytes) III, IV, VII and LN -5 by Real-Time PCR. The following Test Examples 8-1 and 8-2 evaluated the anti-wrinkle efficacy of compounds using HaCaT human immortalized keratinocytes and HSF human skin fibroblasts. […]
# Cu/Zn-sod = assay: Zebrafish oxidative aging model (menadione), Cu/Zn-sod gene expression by RT-qPCR; assay type: in vivo; details: I-8 at 2.5, 7.5, and 22.2 µg/mL, 22 hrs, 4 µM menadione; compared to the modeling group, statistical significance
# Procedure: Experimental animal: Healthy wild-type AB strain zebrafish at 48 hpf (hours post-fertilization)
# Healthy AB strain zebrafish were taken as experimental animal. A zebrafish oxidative aging model was constructed using chemical mutagenesis with 4 µM menadione as the modeling drug. Fucoxanthin was used as a positive control compound. After treating the zebrafish oxidative aging model with different concentrations of I-8 for 22 hrs, changes in the reactive oxygen species (ROS) content, β-galactosidase activity, and the expression of three antioxidant and anti-aging related genes (Cu/Zn-sod, Mn-sod, and ampk) were respectively detected and statistically analyzed.
# During the experiment, the modeling drug, positive compound, and I-8 were dispersed together in the culture water of zebrafish. […] Cell ROX™ Deep Red fluorescent probes and β-galactosidase staining kits were used to specifically label ROS and β-galactosidase in the fish, respectively, and the staining intensity was quantified using Image-Pro Plus software. After extracting RNA from the whole fish, the expression changes of three genes (Cu/Zn-sod, Mn-sod, and ampk) in the fish were detected at the mRNA level using Quantitative Real-time PCR (RT-qPCR). The data were statistically analyzed using GraphPad software.
structure (smiles),measurement,setting,value
O=S1(=O)Oc2cc(O)ccc2-c2ccc(O)cc21 [Compound I-8],expression level of EP2,EP2,downregulating
same,LAMA5 gene expression,LAMA5,upregulate
same,expression of Cu/Zn-sod gene,Cu/Zn-sod,upregulated
